Here are results for four molecules from patent US5208223A, “Phosphocholine derivative inhibitors of phospholipase A2” (American Cyanamid Company, priority 1992, dated 1993).

What all share (assay type): biochemical
Test [1] has as its target T1, porcine pancreatic PLA2 (Sus scrofa, UniProt P00592).
T1 construct: purchased Sigma
Description: MHPLA2 assay: in vitro porcine pancreatic phospholipase A2, mixed micelle design, [s]=10 μm. In outline:
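Compounds dried with 10 μM 1-stearyl-2-[3H]-arachidonyl-PC substrate in mixed micelles (0.1M tris-HCl pH 9.0, 10 mM CaCl2, 10 mM Na taurocholate). Reaction started by adding enzyme and run 15 min at 37°C, then stopped with TCA. Released [3H]-arachidonate separated by TLC or column and counted by scintillation.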

Test [2] has as its target T1, porcine pancreatic PLA2. Nature of the test: MPLA2 assay: in vitro porcine pancreatic phospholipase A2, mixed micelle design, substrate 2 nM. The conditions noted are these: for inhibition at 25 µg/mL: dose 25 μ/ml. In outline:
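Radiochemical PLA2 assay, mixed-micelle design: compound dried under N2 with 1-stearyl-2-[3H]-arachidonyl-PC substrate (2 nM) in 0.1M Tris-HCl pH 9.0, 10 mM CaCl2, 10 mM Na taurocholate. Reaction started with enzyme, 15 min at 37° C, stopped with TCA; released [3H]-arachidonate extracted, separated by TLC or column, counted by scintillation.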

Test [3] addresses T1, porcine pancreatic PLA2. Nature of the test: HPLA2 assay: in vitro porcine pancreatic phospholipase A2, preincubation design, [s]=10 μm. To be noted: for % Inh. Avg.: subs. con. 10. The procedure: Phospholipase A2 activity was measured by a radiochemical assay in which labeled synthetic phosphatidylcholine substrate is converted by porcine pancreatic PLA2 to free radiolabeled arachidonate and lyso PC. Radiolabeled arachidonate is extracted from the reaction mixture and separated from unreacted substrate by column chromatography or TLC. Radioactivity (cpm) in samples is quantitated by liquid scintillation counting. Specific details are as follows:
Labeled substrate(1-stearyl-2-^3 H-arachidonylphosphatidylcholine; Amersham, sp. act. 84 (uCi/mmole, 0.025 to 0.2 uCi/assay tube and unlabeled substrates (Avanti), in sufficient quantity to give 20,000 cpm to 50,000 cpm and 10 μM to 1,000 μM final concentration/assay tube are dried under a stream of nitrogen. The PLA2 and mPLA2 assays utilized a […] substrate concentration. The mHPLA2 and HPLA2 assays (vida infra) utilized a 10 μM substrate concentration and the SmPLA2 assay utilized a substrate concentration ranging from 100 to 1000 μm. The substrate is then redissolved in 0.1M tris-HCl buffer, pH 9.0 containing 10 mM CaCl2 and 10 mM Na taurocholate detergent. The mixture is sonicated in a Kontes Sonifier to yield a homogeneous dispersion. The "mixed" micellar substrate is clear. An aliquot is reserved for a cpm count (total substrate). The total reaction volume is 500 μL; siliconized glassware or plasticware is used throughout. Enzyme (Sigma, sp. act.>690 U/mg protein and preferably 900 U/mg protein) is diluted 1:750 or 1:1000 in 0.1M tris-HCl buffer, pH 9.0 (without Ca^++ and detergent). Enzyme dilution depends on substrate concentration and required enzyme concentration.
The substrate in buffer is kept on ice until the reaction is started. The reaction is started by adding 10 μL of diluted enzyme solution to 490 μL of micellar substrate solution. Samples are incubated in a 37° C. water bath for 15 minutes with gentle mixing. The reaction is terminated by the addition of 100 μL of 1M fresh trichloroacetic acid (TCA) solution and chilling the tubes on ice for 30 minutes.
Samples (600 μL) are extracted with 3 ml CHCl3 /MeOH (2:1) for thin layer chromatography or in hexane/ether (9:1) for column chromatography. The phases are separated by gentle centrifugation at 700 rpm×5'. The organic phase is recovered.
Labeled arachidonate extracted with CHCl3 /MeOH is separated on silica gel G TLC plates (Analtech). Twenty μL of a 2 mg/ml internal standard solution of arachidonic acid (Sigma) is combined with 2-3 ml of the organic phase. The entire mixture is dried under nitrogen and redissolved in 50 μL of CHCl3 /MeOH (2:1). A 20 μL sample is counted in 10 ml of Beckman Redi-solv HP and spotted on silica gel G plates. […] Plates are developed in a glass chamber for 1-11/2 hours, air dried, and the spots visualized in an iodine vapor chamber. Standards of phosphatidylcholine, lyso PC, and arachidonic acid (Sigma) are made as 2 mg/ml stocks in CHCl3 /MeOH (2:1) and spotted on plates. Spots corresponding to arachidonate and phospholipid are scraped and counted in 10 ml Beckman Redi-Solv HP scintillation fluid.
Samples are extracted with hexane/ether and the upper organic phase recovered. An aliquot is applied to a Silicar CC4 (Malincrodt) column. Columns are prepared using 1 ml of a 1:1 slurry of silicar CC4 in hexane/ether in a Pasteur pipet (approx. 2 cm height). Columns are rinsed with 500 μL of hexane/ether before adding the sample (300-600 μL) to the column. Columns are eluted with a total of 6 ml of hexane/ether. The 6 ml sample is counted in 10 ml of Beckman Redi-Solv HP scintillation fluid.
or the phospholipase A2 assay, compounds are prepared as 1 mg/ml stock solutions in MeOH and diluted appropriately in PBS.

In test [4] the target is T1, porcine pancreatic PLA2. Nature of the test: PLA2 assay: in vitro porcine pancreatic phospholipase A2, preincubation of drug+enzyme, substrate 2 nM. To be noted: preincubation, subs. con. 2; for inhibition at 25 µg/mL: dose 25 μ/ml; for IC50: read-out: IC50 (converted); for inhibition at 10 µg/mL: read-out: % Inh. Avg. In outline: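 Porcine pancreatic PLA2 acting on 2 nM radiolabeled arachidonyl-phosphatidylcholine in mixed micelles (0.1 M Tris-HCl pH 9.0, 10 mM CaCl2, 10 mM Na taurocholate), 15 min at 37 °C with preincubation of drug and enzyme. Stopped with TCA; released 3H-arachidonate extracted, separated by TLC or column, counted by scintillation.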

The mark [5] stands for this setting: dose 25 μ/ml, subs. con. 10, read-out: % Inh.
Where [6] appears, read: dose 10 μ/ml, subs. con. 10, read-out: % Inh. Avg.
The mark [7] stands for this setting: dose 20 μ/ml, subs. con. 10, read-out: % Inh. Avg.
Setting [8] is: dose 50 μ/ml, subs. con. 10, read-out: % Inh. Avg.
[9] abbreviates: dose 10 μ/ml, subs. con. 10, read-out: % Inh.

Molecules are shown by their SMILES. Counter-ions that a name gives are not always drawn. Like-named read-outs stand apart in the source and are kept apart here.

T1 sequence (P00592 23-146): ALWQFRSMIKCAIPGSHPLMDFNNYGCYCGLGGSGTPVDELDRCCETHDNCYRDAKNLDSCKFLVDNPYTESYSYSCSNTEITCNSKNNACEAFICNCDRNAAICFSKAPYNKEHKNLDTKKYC

Broadly, the IC50 is the point on the concentration scale where inhibition reaches its midpoint. In the case of `CCCCCCCCCCCCCCCCOC[C@H](COP(=O)([O-])OCC[N+](C)(C)C)OP(=O)(OC)OCCCCCCCCCCCCCCCC` (single isomer, unassigned), the inhibition at 25 µg/mL in test [1] (setting [5]) worked out at 7%; in test [2] (subs. con. 2, read-out: % Inh.) it was 93%; in test [4] (read-out: % Inh.) it was 93%. Besides, the inhibition at 10 µg/mL in test [3] (setting [6]) stood at 17%. Besides, in test [3] (setting [7]), the inhibition at 20 µg/mL came to 21%. Also, the inhibition at 50 µg/mL in test [3] (setting [8]) was found to be 30%. For the same molecule, the IC50 in test [4] was 2500 nM.

As to `CCCCCCCCCCCCCCCCOCC(COP(=O)([O-])OCC[N+](C)(C)C)OP(=O)(O)OCCCCCCCCCCCCCCCC` (single isomer, unassigned; more polar) [3,5,8,10-Tetraoxa-4,9-diphosphahexacosan-1-aminium, 7-[(hexadecyloxy)methyl]-4,9-dihydroxy-N,N,N-trimethylhydroxide, 4-(inner salt), 4,9-dioxide, more polar isomer], the results for the inhibition at 25 µg/mL in test [1] (setting [5]) and in test [4] (read-out: % Inh.) were 1% and 91%, respectively. Besides, the inhibition at 10 µg/mL in test [3] (setting [6]) worked out at 18%; in test [4] (dose 10 μ/ml), 27%. Moreover, the inhibition at 20 µg/mL in test [3] (setting [7]) came to 22%. Also, the inhibition at 50 µg/mL in test [3] (setting [8]) was 32%. In addition, in test [4], the IC50 is 3180 nM.

Consider `CCCCCCCCCCCCCCCCOC[C@@H](COP(=O)([O-])OCC[N+](C)(C)C)OP(=O)(OC)OCCCCCCCCCCCCCCCC` (single isomer, unassigned) [3,5,8,10-Tetraoxa-4,9-diphosphahexacosan-1-aminium, 7-[(hexa], for which the “% Inh.” value in test [1] (dose 25 μ/ml, subs. con. 10) is listed as 9%. Also, the “% Inh. Avg.” value in test [3] (dose 10 μ/ml) is on record as 18%; in test [3] (dose 20 μ/ml), 12%; in test [3] (dose 50 μ/ml) it was 25%; in test [4] (dose 10 μ/ml), 25%; in test [4] (dose 20 μ/ml), 39%.

For the molecule `CCCCCCCCCCCCCCCCOCC(COP(=O)([O-])OCC[N+](C)(C)C)C[S+]([O-])CCCCCCCCCCCCCCCC` (stereo not shown) [7-[(Hexadecylsulfinyl)methyl]-4-hydroxy-N,N,N-trimethyl-3,5,9-trioxa-4-phosphapentacosan-1-aminium, hydroxide, inner salt, 4-oxide], the inhibition at 10 µg/mL is 3% in test [1] (setting [9]); 71% in test [2] (dose 10 μ/ml, subs. con. 2, read-out: % Inh.); 27% in test [3] (setting [9]); 22% in test [3] (setting [6]); 66% in test [4] (dose 10 μ/ml). Besides, the inhibition at 20 µg/mL in test [1] (dose 20 μ/ml, subs. con. 10) turned out to be 22%; in test [2] (dose 20 μ/ml, subs. con. 2, read-out: % Inh.), 84%; in test [3] (dose 20 μ/ml, subs. con. 10, read-out: % Inh.), 33%; in test [3] (setting [7]), 33%; in test [4] (dose 20 μ/ml, read-out: % Inh.), 93%. Moreover, the inhibition at 25 µg/mL is 68% in test [1] (setting [5]) and 98% in test [2] (subs. con. 2, read-out: % Inh.). Moreover, the IC50 was 3860 nM in test [2] (subs. con. 2) and 1860 nM in test [4]. Moreover, the inhibition at 50 µg/mL in test [3] (dose 50 μ/ml, subs. con. 10, read-out: % Inh.) came to 36%; in test [3] (setting [8]) it was 42%. In test [4] (dose 10 μ/ml), the “% Inh.” value came out at 88%.
